# Measured values: patent US8003360B2, “Debaryomyces castellii phytase” (Adisseo France S.A.S., priority 2005, dated 2011)
# “Also recorded” adds a separate entry of the source. Where two headings read alike, the source gives them in different places.
# B1: Debaryomyces castellii CBS 2923 phytase, native (wild type), SEQ ID No. 2 (Schwanniomyces capriottii) (protein)
# chain: VSVSKLINNGLLLVGQGAYQDLASPQQASVEQYNIIRFLGGAAPYIQNKGFGISTDIPDQCTLEQVQLFSRHGERYPSTGSGKKYKAVYEKLMSYNGTFKGELAFLNDDYEYFVPDSVYLEKETSPKNSDSIYAGTTDAMKHGIAFRTKYGELFDTNDTLPVFTSNSGRVYQTSQYFARGFMGDDFSNDTVKTNIISEDADMGANSLTPRDGCFNYNENANTAIVDEYTTEYLTKALNRFKASNPGLNITEDDVSNLFGYCAYELNVKGASPMCDIFTNEEFIQYSYSVDLDDYYSNSAGNNMTRVIGSTLLNASLELLNHDKNENKIWLSFTHDTDIEIFHSAIGILIPDEDLPVDYTPFPSPYSHVGITPQGARTIIEKYACGNESYVRYVINDAVIPIKKCSSGPGFSCNLNDYNDYVAERVAGTNYVEQCGNNNASAVTFYWDYETTNYTASLINS
# B2: recombinant Debaryomyces castellii CBS 2923 phytase (recPhyt, expressed in Pichia pastoris), SEQ ID No. 2 (Schwanniomyces capriottii) (protein)
# chain: MVSVSKLINNGLLLVGQGAYQDLASPQQASVEQYNIIRFLGGAAPYIQNKGFGISTDIPDQCTLEQVQLFSRHGERYPSTGSGKKYKAVYEKLMSYNGTFKGELAFLNDDYEYFVPDSVYLEKETSPKNSDSIYAGTTDAMKHGIAFRTKYGELFDTNDTLPVFTSNSGRVYQTSQYFARGFMGDDFSNDTVKTNIISEDADMGANSLTPRDGCFNYNENANTAIVDEYTTEYLTKALNRFKASNPGLNITEDDVSNLFGYCAYELNVKGASPMCDIFTNEEFIQYSYSVDLDDYYSNSAGNNMTRVIGSTLLNASLELLNHDKNENKIWLSFTHDTDIEIFHSAIGILIPDEDLPVDYTPFPSPYSHVGITPQGARTIIEKYACGNESYVRYVINDAVIPIKKCSSGPGFSCNLNDYNDYVAERVAGTNYVEQCGNNNASAVTFYWDYETTNYTASLINS
# Tests used:
# D. castellii phytase [1] = assay: Hydrolysis of various inositol phosphates (Table 6B); assay type: biochemical, Debaryomyces castellii; conditions: hydrolysis 30 minutes at 37° C., pH 4
# D. castellii phytase [2] = assay: Influence of effectors on phytase activity; assay type: biochemical, Debaryomyces castellii; conditions: for inhibition of phytase activity: concentrations see Table 3
# D. castellii phytase [3] = assay: Substrate specificity, phosphate release kinetics (Table 6A); assay type: biochemical, Debaryomyces castellii; conditions: 250 mM sodium acetate buffer, 1 mM CaCl2, pH 4, 37° C.
# Protocol: The reaction is triggered by the addition of the enzymatic extract (1 volume). The reaction is stopped by acidification of the medium with 20% trichloroacetic acid (1 volume of reaction medium+1 volume of acid). The amount of phosphate released is determined after various incubation times.
# [4] = tested on: Debaryomyces castellii CBS2923 phytase; assay: Influence of the environment (additives, calcium, buffer molarity) on thermostability of the phytase; assay type: physicochemical
# Protocol: At the end of treatment, the extract is cooled in water at +4° C. […] Three types of elements are tested: • sugars or sugar alcohol: sucrose, lactose, trehalose, arabinose, glycerol, • the absence of calcium, • the molarity of the buffer. […] At the end of treatment, the extract is cooled in water to +4° C. […] Materials and Methods).
# [5] = target: T1, Debaryomyces castellii CBS 2923 phytase, native (wild type), SEQ ID No. 2 (Schwanniomyces capriottii, UniProt A2TBB4); assay: Kinetic constants (specificity study) of the native phytase; assay type: biochemical; conditions: native enzyme; calcium phytate versus pNPP
# Protocol: (§1) The effect of pH on the phytase activity is determined using the following buffer solutions: 200 mM glycine-HCl, pH 2-3.5; 200 mM sodium acetate-acetic acid, pH 3.5-7; and 200 mM tris-HCl, pH 7-9. The reactions are carried out at +37° C. using the phytate as substrate. The optimum temperature is determined by varying the temperature from +30° C. to +80° C. […] After the heat treatment, the mixture is cooled in ice and the phytase activity is determined using the phytate as substrate.
# (§2) The amount of phosphate released is measured by colorimetery. The visualizing solution, prepared extemporaneously, contains iron sulphate (380 mM, 1 volume) and ammonium heptamolybdate (12 mM, 4 volumes). The absorbance at 700 nm is measured after 30 minutes of visualization at ambient temperature (1 volume of reaction medium+1 volume of visualizing solution), using a UV/visible spectrophotometer (Beckman DU 530).
# (§3) The kinetic constants are determined on 2 substrates.
# [6] = target: T1, Debaryomyces castellii CBS 2923 phytase, native (wild type), SEQ ID No. 2; assay: Influence of effectors on the phytase activity; assay type: biochemical; conditions: for effect on the phytase activity (in words): Table 3
# Protocol: as §2
# [7] = tested on: Schwanniomyces occidentalis phytase; conditions: Segueilha et al., 1992; cited from earlier work
# D. castellii phytase [8] = assay: Kinetic constants of the native phytase on substrates; assay type: biochemical, Debaryomyces castellii; conditions: +37° C., pH 4 with sodium phytate, pH 5.5 with p-NPP
# Protocol: as §1, §3
# [9] = target: recombinant Debaryomyces castellii CBS 2923 phytase (recPhyt, expressed in Pichia pastoris), SEQ ID No. 2 (Schwanniomyces capriottii, UniProt A2TBB4); conditions: phytate compared with p-NPP
# [10] = substrate: O=P(O)(O)O[C@H]1[C@H](OP(=O)(O)O)[C@@H](OP(=O)(O)O)[C@H](OP(=O)(O)O)[C@@H](OP(=O)(O)O)[C@H]1OP(=O)(O)O; assay: purified protein, by the assay type
# [11] = effector 5 mM, phytate control = 100
# [12] = CaCl2 0 mM (absence of calcium), 250 mM acetate buffer pH 4
# [13] = additive 10% in 250 mM acetate buffer pH 4, 1 mM calcium
# [14] = other: native enzyme, 37° C., pH 4 for sodium phytate, pH 5.5 for p-NPP
molecule,measurement,setting,value
"O=P(O)(O)O[C@H]1[C@H](O)[C@@H](O)[C@H](OP(=O)(O)O)[C@@H](O)[C@H]1O [Ins(1,4)P2]",% activity,D. castellii phytase [1]; substrate 0.1 mM,65%
[Cl-].[Cl-].[Co+2] [CoCl2],% activity,D. castellii phytase [2],42.3%
C=C(OP(=O)(O)O)C(=O)O [Phospho(enol)pyruvate],% activity,D. castellii phytase [3]; substrate 4 mM,130%
[Ca+2].[Cl-].[Cl-] [CaCl2],% activity,D. castellii phytase [2]; [11],90%
same,activity after 1 h at 20° C.,[4]; [12],100
same,activity after 1 h at 66.5° C.,[4]; [12],1
O=P(O)(O)O[C@H]1[C@H](OP(=O)(O)O)[C@@H](OP(=O)(O)O)[C@H](OP(=O)(O)O)[C@@H](OP(=O)(O)O)[C@H]1OP(=O)(O)O [calcium phytate],affinity of the phytase relative to p-nitrophenyl phosphate (pNPP),[5],4 times
O=C(O)CI [iodoacetic acid],% activity,D. castellii phytase [2],100%
same,effect on phytase activity,D. castellii phytase [2],does not cause any inhibition; also recorded: absence of effect
same,effect on the phytase activity (in words),[6],does not cause any inhibition of the activity
"OC[C@H]1O[C@@H](O[C@H]2[C@H](O)[C@@H](O)C(O)O[C@@H]2CO)[C@H](O)[C@@H](O)[C@H]1O (stereo partly drawn) [Lactose, lactose]",activity after 1 h at 20° C.,[4]; [13],95
same,activity after 1 h at 66.5° C.,[4]; [13],47
O=P(O)(O)OC1[C@@H](O)[C@H](O)C(O)[C@H](O)[C@H]1O (stereo partly drawn) [Ins(2)P1],% activity,D. castellii phytase [1]; substrate 1 mM,84%
[Cl-].[Cl-].[Zn+2] [ZnCl2],% activity,D. castellii phytase [2]; [11],57%
same,effect on phytase activity,[7],sensitive
O=P(O)(O)OCC(O)CO (stereo in doubt) [L-α-glycerophosphate],% activity,D. castellii phytase [3]; substrate 4 mM,78%
N[C@@H](Cc1c[nH]c2ccccc12)C(=O)O [tryptophan],effect on the phytase activity (in words),[6],re-establishes the activity
[Cl][Cu][Cl] [CuCl2],% activity,D. castellii phytase [2]; [11],66.6%
same,effect on phytase activity,[7],sensitive
Nc1ncnc2c1ncn2[C@@H]1O[C@H](COP(=O)(O)O)[C@@H](O)[C@H]1O [Adenosine 5′-monophosphate],% activity,D. castellii phytase [3]; substrate 4 mM,50%
"OC[C@H]1O[C@@](CO)(O[C@H]2O[C@H](CO)[C@@H](O)[C@H](O)[C@H]2O)[C@@H](O)[C@@H]1O [Sucrose, sucrose]",activity after 1 h at 20° C.,[4]; [13],97
same,activity after 1 h at 66.5° C.,[4]; [13],57
"O=P(O)(O)O[C@H]1[C@H](OP(=O)(O)O)[C@@H](OP(=O)(O)O)[C@H](OP(=O)(O)O)[C@@H](OP(=O)(O)O)[C@H]1OP(=O)(O)O [Phytic acid, myo-inositol hexakisphosphate]",% activity,D. castellii phytase [3]; substrate 9 mM (control),100%
same,% activity,D. castellii phytase [1]; substrate 9 mM (control),91%
"OCC(O)CO [Glycerol, glycerol]",activity after 1 h at 20° C.,[4]; [13],96
same,activity after 1 h at 66.5° C.,[4]; [13],56
O=C(O)C(O)COP(=O)(O)O (stereo not drawn) [D(−)3-phosphoglyceric acid],% activity,D. castellii phytase [3]; substrate 4 mM,95%
"O=C[C@@H](O)[C@H](O)[C@H](O)CO [Arabinose, arabinose]",activity after 1 h at 20° C.,[4]; [13],90
same,activity after 1 h at 66.5° C.,[4]; [13],36
II [iodine],% activity,D. castellii phytase [2],25.6%
same,inhibition of phytase activity,D. castellii phytase [2],75%
[Cl][Mn][Cl] [MnCl2],inhibition of phytase activity,D. castellii phytase [2],72%
same,% activity,D. castellii phytase [2]; [11],28.8%
O=C(CO)[C@@H](O)[C@H](O)[C@H](O)COP(=O)(O)O [Fructose-6-phosphate],% activity,D. castellii phytase [3]; substrate 4 mM,35%
[Cl][Hg][Cl] [HgCl2],% activity,D. castellii phytase [2]; [11],96.2%
O=C1CCC(=O)N1Br [N-bromosuccinimide],% activity,"D. castellii phytase [2]; effector 0.1 and 1 mM, phytate control = 100",1%
same,effect on phytase activity,"D. castellii phytase [2]; inhibitors tested, see Table 3",completely inhibits
same,effect on the phytase activity (in words),[6],completely inhibits the phytase activity
Nc1ncnc2c1ncn2[C@@H]1O[C@H](COP(=O)(O)OP(=O)(O)OP(=O)(O)O)[C@@H](O)[C@H]1O [Adenosine 5′-triphosphate],% activity,D. castellii phytase [3]; substrate 4 mM,133%
O=C(O)CN(CCN(CC(=O)O)CC(=O)O)CC(=O)O [EDTA],% activity,D. castellii phytase [2],104.5%
OCCS [2-mercaptoethanol],effect on phytase activity,"D. castellii phytase [2]; inhibitors tested, see Table 3",absence of effect
same,% activity,"[6]; effector 3 mM, phytate control 9 mM = 100",107%
[Cl][Cr][Cl] [CrCl2],% activity,D. castellii phytase [2]; [11],107.6%
"OC[C@H]1O[C@H](O[C@H]2O[C@H](CO)[C@@H](O)[C@H](O)[C@H]2O)[C@H](O)[C@@H](O)[C@@H]1O [Trehalose, trehalose]",activity after 1 h at 20° C.,[4]; [13],94
same,activity after 1 h at 66.5° C.,[4]; [13],56
[Cl-].[Cl-].[Mg+2] [MgCl2],% activity,D. castellii phytase [2]; [11],68.7%
"O=P(O)(O)O[C@H]1[C@H](OP(=O)(O)O)[C@@H](OP(=O)(O)O)[C@H](OP(=O)(O)O)[C@@H](OP(=O)(O)O)[C@H]1OP(=O)(O)O [Sodium phytate, sodium phytate]",Vm,D. castellii phytase [8],35.8 µmol/min/mg
same,affinity (in words),[9],greater affinity
O=C[C@H](O)[C@@H](O)[C@H](O)[C@H](O)COP(=O)(O)O [Glucose-6-phosphate],% activity,D. castellii phytase [3]; substrate 4 mM,82%
[Cl][Fe]([Cl])[Cl] [FeCl3],% activity,D. castellii phytase [2]; [11],92%
Nc1ncnc2c1ncn2[C@@H]1O[C@H](COP(=O)(O)OP(=O)(O)O)[C@@H](O)[C@H]1O [Adenosine 5′-diphosphate],% activity,D. castellii phytase [3]; substrate 4 mM,120%
O=P(O)(O)OC1[C@H](O)[C@H](O)C(O)[C@H](O)[C@H]1O (stereo partly drawn) [Ins(1)P1],% activity,D. castellii phytase [1]; substrate 1 mM,58%
"O=P(O)(O)O[C@@H]1[C@H](O)[C@H](O)[C@@H](OP(=O)(O)O)[C@H](OP(=O)(O)O)[C@H]1O [Ins(1,4,5)P3]",% activity,D. castellii phytase [1]; substrate 0.1 mM,56%
B1,Km,[10]; [14],532 µM
same,Vmax,[10]; [14],35.8 µmol/min/mg
B2,Km,[10]; 37.0 °C,240 µM
same,Vmax,[10]; 37.0 °C,137.8 U/mg
